In patent US8933015B2, “Macrocyclic inhibitors of flaviviridae viruses” (Gilead Sciences, Inc., priority 2010, dated 2015) one finds ring closure, isolated yield data, which are given here for ten compounds.

Where two headings read alike, the source gives them in different places.

The conditions of the data set: rcm bond, 22-membered ring.

With `CCO[C@@H]1CC/C=C/c2cccc(c2)COC(=O)[C@@H]2CCCN(N2)C(=O)[C@H](Cc2cccc(O[Si](C)(C)C(C)(C)C)c2)NC(=O)[C@H](C(C)C)NC(=O)[C@@H]1C`, where the note is “from C=CCC[C@@H](OCC)[C@@H](C)C(=O)N[C@H](C(=O)N[C@@H](Cc1cccc(O[Si](C)(C)C(C)(C)C)c1)C(=O)N1CCC[C@@H](C(=O)OCc2cccc(C=C)c2)N1)C(C)C, Hoveyda-Grubbs II, DCE, 2.53 mM, 83.0 °C, 1.5 h”, the ring closure, isolated yield was 66%.

Where the note is “from C=CCCCCOC(=O)[C@@H]1CCCN(C(=O)[C@H](Cc2cccc(O[Si](C)(C)C(C)(C)C)c2)NC(=O)[C@@H](NC(=O)[C@H](C)[C@@H](CCC=C)OC)C(C)C)N1, Grubbs II, DCE, 3.02 mM, 83.0 °C, 3.0 h”, `CO[C@@H]1CC/C=C/CCCCOC(=O)[C@@H]2CCCN(N2)C(=O)[C@H](Cc2cccc(O[Si](C)(C)C(C)(C)C)c2)NC(=O)[C@H](C(C)C)NC(=O)[C@@H]1C` gave a ring closure, isolated yield of 48%. In turn, `CO[C@@H]1CC/C=C/c2cccc(c2)[C@@H](C)OC(=O)[C@@H]2CCCN(N2)C(=O)[C@H](Cc2cccc(O[Si](C)(C)C(C)(C)C)c2)NC(=O)[C@H](C(C)C)NC(=O)C1` showed a ring closure, isolated yield (from C=CCC[C@H](CC(=O)N[C@H](C(=O)N[C@@H](Cc1cccc(O[Si](C)(C)C(C)(C)C)c1)C(=O)N1CCC[C@@H](C(=O)O[C@H](C)c2cccc(C=C)c2)N1)C(C)C)OC, Hoveyda-Grubbs II, DCE, 2.63 mM, 80.0 °C, 1.5 h) of 46%.

Turning to `CO[C@@H]1CC/C=C/c2ccnc(c2)COC(=O)[C@@H]2CCCN(N2)C(=O)[C@H](Cc2cccc(O[Si](C)(C)C(C)(C)C)c2)NC(=O)[C@H](C(C)C)NC(=O)[C@@H]1C`, the ring closure, isolated yield (from C=CCC[C@@H](OC)[C@@H](C)C(=O)N[C@H](C(=O)N[C@@H](Cc1cccc(O[Si](C)(C)C(C)(C)C)c1)C(=O)N1CCC[C@@H](C(=O)OCc2cc(C=C)ccn2)N1)C(C)C, Hoveyda-Grubbs II, DCE, 2.69 mM, 80.0 °C, 3.0 h) worked out at 61%. Consider `CO[C@@H]1CCC=Cc2ccc3c(c2)[C@@H](CC3)OC(=O)[C@@H]2CCCN(N2)C(=O)[C@H](Cc2cccc(O[Si](C)(C)C(C)(C)C)c2)NC(=O)[C@H](C(C)C)NC(=O)[C@@H]1C`, for which, for the setting “from C=CCC[C@@H](OC)[C@@H](C)C(=O)N[C@H](C(=O)N[C@@H](Cc1cccc(O[Si](C)(C)C(C)(C)C)c1)C(=O)N1CCC[C@@H](C(=O)O[C@@H]2CCc3ccc(C=C)cc32)N1)C(C)C, Hoveyda-Grubbs II (two portions), DCE, 3.16 mM, 83.0 °C, 6.0 h, 2 steps”, the ring closure, isolated yield was 14%. Turning to `CO[C@@H]1CCC=Cc2cccc(c2)COC(=O)[C@@H]2CCCN(N2)C(=O)[C@H](Cc2cccc(O[Si](C)(C)C(C)(C)C)c2)NC(=O)[C@H](C(C)C)NC(=O)[C@@H]1C`, the ring closure, isolated yield (from C=CCC[C@@H](OC)[C@@H](C)C(=O)N[C@H](C(=O)N[C@@H](Cc1cccc(O[Si](C)(C)C(C)(C)C)c1)C(=O)N1CCC[C@@H](C(=O)OCc2cccc(C=C)c2)N1)C(C)C, Grubbs I, DCM, 3.0 mM, 40.0 °C, 16.0 h) amounted to 75%.

For the compound `CO[C@@H]1CCC=Cc2cccc(c2)[C@@H](C)NC(=O)[C@@H]2CCCN(N2)C(=O)[C@H](Cc2cccc(O[Si](C)(C)C(C)(C)C)c2)NC(=O)[C@H](C(C)C)NC(=O)[C@@H]1C`, the ring closure, isolated yield (from C=CCC[C@@H](OC)[C@@H](C)C(=O)N[C@H](C(=O)N[C@@H](Cc1cccc(O[Si](C)(C)C(C)(C)C)c1)C(=O)N1CCC[C@@H](C(=O)N[C@H](C)c2cccc(C=C)c2)N1)C(C)C, Hoveyda-Grubbs II, DCE, 2.59 mM, 80.0 °C, 3.0 h) came out at 22%. Consider `CO[C@@H]1CCC=Cc2cccc(c2)[C@@H](C)OC(=O)[C@@H]2CCCN(N2)C(=O)[C@H](Cc2cccc(O[Si](C)(C)C(C)(C)C)c2)NC(=O)[C@H](C(C)C)NC(=O)[C@@H]1C`, for which the ring closure, isolated yield (from C=CCC[C@@H](OC)[C@@H](C)C(=O)N[C@H](C(=O)N[C@@H](Cc1cccc(O[Si](C)(C)C(C)(C)C)c1)C(=O)N1CCC[C@@H](C(=O)O[C@H](C)c2cccc(C=C)c2)N1)C(C)C, Hoveyda-Grubbs II, DCE, 2.68 mM, 83.0 °C, 3.0 h) is 70%. As to `CO[C@@H]1[C@@H](C)[C@@H](OC)C=CC=CC[C@@H](C)OC(=O)[C@@H]2CCCN(N2)C(=O)[C@H](Cc2cccc(O[Si](C)(C)C(C)(C)C)c2)NC(=O)[C@H](C(C)C)NC(=O)[C@@H]1C`, the ring closure, isolated yield (from C=C/C=C\[C@H](OC)[C@H](C)[C@@H](OC)[C@@H](C)C(=O)N[C@H](C(=O)N[C@@H](Cc1cccc(O[Si](C)(C)C(C)(C)C)c1)C(=O)N1CCC[C@@H](C(=O)O[C@H](C)CC=C)N1)C(C)C, Grubbs I (two portions), DCM, 2.0 mM, 40.0 °C, 42.0 h) stood at 42%. For the compound `COc1ccc(C[C@@H]2NC(=O)[C@H](C)[C@H](OC)[C@@H](C)[C@@H](OC)C=CC=CCCOC(=O)[C@@H]3CCCN(N3)C(=O)[C@H](Cc3cccc(O[Si](C)(C)C(C)(C)C)c3)NC2=O)cc1`, the ring closure, isolated yield (from C=C/C=C\[C@H](OC)[C@H](C)[C@@H](OC)[C@@H](C)C(=O)N[C@@H](Cc1ccc(OC)cc1)C(=O)N[C@@H](Cc1cccc(O[Si](C)(C)C(C)(C)C)c1)C(=O)N1CCC[C@@H](C(=O)OCCC=C)N1, Grubbs I, DCM, 2.52 mM, 40.0 °C, 24.0 h) was found to be 34%.
